# Laboratory results taken from ChEMBL document CHEMBL3243968, “Effects of molecular modification on hypocholesteremic activity of 1,3-bis(substituted phenoxy)-2-propanones and related derivatives” (J Med Chem, 1978).
# Key:
# Rattus norvegicus [1] = assay: Toxicity in Sprague-Dawley rat at 10 mg/kg/day, po; assay type: organism-based; design: route oral; conditions: in vivo
# Rattus norvegicus [2] = assay: Estrogenic activity in Sprague-Dawley rat at 10 mg/kg/day, po; assay type: ADME, organism-based; design: route oral; conditions: in vivo
# [3] = 1-Octanol-water partition coefficient, log P of the compound by UV spectrophotometer; assay type: physicochemical
# Rattus norvegicus [4] = assay: Toxicity in Sprague-Dawley rat at 10 mg/kg/day, po administered for 4 days; assay type: organism-based; design: route oral; conditions: in vivo, 96 h
# Rattus norvegicus [5] = assay: Toxicity in Sprague-Dawley rat at 10 mg/kg/day, po administered for 16 days; assay type: organism-based; design: route oral; conditions: in vivo, 384 h
# Rattus norvegicus [6] = assay: Toxicity in Sprague-Dawley rat at 10 mg/kg/day, po administered for 10 days; assay type: organism-based; design: route oral; conditions: in vivo, 240 h
Structure (SMILES),Activity (Rattus norvegicus [1]),Activity (Rattus norvegicus [2]),other results
CCOC(COc1cc(C)c(C)cc1Cl)(COc1cc(C)c(C)cc1Cl)OCC,Non-toxic,Non-toxic,logP [3]: 2.69
O=C(COc1ccc(Cl)c2ccccc12)COc1ccc(Cl)c2ccccc12,Non-toxic,Non-toxic,
Cc1ccc(OC(C)C(=O)C(C)Oc2ccc(C)cc2)cc1 (stereo unspecified),Non-toxic,Non-toxic,
O=C(CCl)COc1ccc([N+](=O)[O-])cc1,,Non-toxic,Activity (Rattus norvegicus [4]): Toxic; Activity (Rattus norvegicus [5]): Toxic; Activity (Rattus norvegicus [6]): Toxic
CCOC(=O)CC(=O)COc1ccc(C)cc1,Non-toxic,Non-toxic,
CCCCCCCCCCCCCCC(=O)COc1ccc(C)cc1,Non-toxic,Non-toxic,
COc1cccc(OCC(=O)COc2cccc(OC)c2)c1,Non-toxic,Non-toxic,
CCCCCCCCCCCCCCCCCCOCC(=O)COc1ccc(C)cc1,Non-toxic,Non-toxic,
Cc1ccc(OCC(=O)CO)cc1,Non-toxic,Non-toxic,
O=C(COc1ccc([N+](=O)[O-])cc1)COc1ccc([N+](=O)[O-])cc1,Non-toxic,Non-toxic,
O=C(CCl)COc1cccc2ccccc12,Non-toxic,Non-toxic,
CC(=O)COc1ccc([N+](=O)[O-])cc1,Non-toxic,Non-toxic,
CCCCCOCC(=O)COCCCCC,Non-toxic,Non-toxic,
O=C(COc1ccccc1)COc1ccccc1,,,logP [3]: < 2.69
Cc1ccc(OCC2CO2)cc1 (stereo unspecified),Non-toxic,Non-toxic,logP [3]: 2.69
CCOC(=O)C(C)(C)Oc1ccc(Cl)cc1 [CLOFIBRATE],Non-toxic,Non-toxic,
COc1ccccc1OCC(=O)COc1ccccc1OC,,,logP [3]: < 2.69
CCCCCCCCCCCCC(OC(C)=O)S(C)(=O)=O (stereo unspecified),Non-toxic,Non-toxic,
O=C(COc1ccc2c(c1)CCC2)COc1ccc2c(c1)CCC2,Non-toxic,Non-toxic,
Cc1ccccc1OCC(=O)COC(=O)c1ccc(Cl)cc1,Non-toxic,Non-toxic,
O=C(COc1ccc(-c2ccccc2)cc1)COc1ccc(-c2ccccc2)cc1,Non-toxic,Non-toxic,
CC(=O)COc1ccc(C)cc1,Non-toxic,Non-toxic,
